According to patent publication US20070202486A1, “Method Of Assaying Substance Capable Of Changing Mitochondrial Membrane Potential” (Mitsubishi Pharma Corporation, priority 2004, published 2007):

How the values were obtained:
[1] = test system: Girardi cells; assay: Mitochondrial depolarization inhibition, JC-1 fluorescence ratio, ouabain/KCl-induced depolarization (Example 1); type: cell-based, human; conditions: 1 mM ouabain + 60 mM KCl, 2 hr
Experimental: First of all, Girardi cells are seeded on a plate usable for an optical measurement method, and cultured in a normal medium (MEM medium supplemented with additives, such as non-essential amino acid, fetal bovine serum and the like). Then, the medium is changed to a normal medium containing JC-1 to allow incorporation of JC-1 into the cell, the medium is changed to a normal medium containing a test substance, and the cells are cultured. Then, a depolarization-inducing medium is used (normal medium containing ouabain and KCl; in the evaluation method of the present invention, ouabain is used at a concentration of 0.1 μM-3 mM, and KCl is used at a concentration of 20 mM-90 mM). The test substance may be added along with or after addition of a depolarization-inducing medium following incorporation of JC-1 into the cell. After addition of the depolarization-inducing medium, the culture time can be 1-24 hr. Thereafter, the fluorescence of JC-1 monomer and the fluorescence of J-aggregate are measured on a fluorescence plate reader (capable of excitation at around 488-490 nm, which is the excitation wavelength of JC-1, and capable of fluorescence detection around 527 nm, which is the fluorescence wavelength peak of JC-1 monomer and around 590-600 nm, which is the fluorescence wavelength of J-aggregate), and the fluorescence intensity ratio (monomer fluorescence intensity/J-aggregate fluorescence intensity) is calculated.
Girardi cells suspended in a normal medium [(MEM (GIBCO 11095-098) supplemented with 1% non-essential amino acid (MEM Non-Essential Amino Acids Solution 10 mM 100× GIBCO 11140-050), and 10% fetal bovine serum (BIOFLUIDS DIVISION Lot No. 302030))] were seeded to a 96-well clear bottom black plate (MATRIX MT4940) at 200 μL/well and cultured.
JC-1 (Molecular Probes T-3168, 1 mg/mL DMSO solution) was added to a phenol red-free normal medium [MEM (GIBCO 51200-038) supplemented with 1% non-essential amino acid (MEM Non-Essential Amino Acids Solution 10 mM 100× GIBCO 11140-050), 1% L-glutamine (L-Glutamine-200 mM 100×: GIBCO 25030-149) and 10% fetal bovine serum (BIOFLUIDS DIVISION: Lot No. 302030)] at 10 μL/mL, the mixture was stirred with a vortex mixer and centrifuged at 3000 rpm for 1 min and the supernatant was filtered through a syringe filter (0.22 μm, MILLIPORE). The medium in the 96-well plate was removed and the JC-1 solution was dispensed to a cell-seeded well at 50 μL/well. […]
After induction of depolarization, the plate was set on a fluorescence plate reader (TECAN, SpectraFluor) heated to 37° C., and the J-aggregate fluorescence was measured at 595 nm using an excitation wavelength of 485 nm. Then, the monomer fluorescence was measured at 535 nm using an excitation wavelength of 485 nm. […]

[2] = test system: Griardi cells; conditions: JC-1, flow cytometry; cited from earlier work
[3] = test system: Griardi cells; conditions: 3 hr low oxygen with metabolism inhibitor, then 1 hr normal medium; cited from earlier work

SMILES	mitochondrial depolarization inhibitory action (fluorescence intensity ratio monomer/J-aggregate) [1]	other results
CC1(C)Oc2ccc(C#N)cc2[C@H](N(Cc2ncc[nH]2)c2ccc(Cl)cc2)[C@H]1O [BMS-191095]	mitochondrial depolarization inhibitory action	
N#CC(C#N)=NNc1cccc(Cl)c1 [CCCP]		mitochondrial membrane potential (red fluorescence intensity of JC-1) [2]: decreased fluorescence intensity and depolarization of mitochondria were observed
Nc1ncnc2c1ncn2[C@@H]1O[C@H](CO)[C@@H](O)[C@H]1O [adenosine]		apoptosis [3]: strongly inhibited apoptosis
CC1=NS(=O)(=O)c2cc(Cl)ccc2N1 [diazoxide]	mitochondrial depolarization inhibitory action	
COc1ccc([C@@H]2Sc3ccccc3N(CCN(C)C)C(=O)[C@@H]2OC(C)=O)cc1.Cl [diltiazem, diltiazem hydrochloride]	did not prevent mitochondrial depolarization	
CC1(C)Oc2ccc(C#N)cc2[C@@H](N2CCCC2=O)[C@@H]1O [levcromakalim]	did not prevent mitochondrial depolarization	
